The record followed here is US20220229063A1, “FLUORESCENT COMPOUND WITH CYANURIC-HYDROXIDE AND PREPARATION METHOD THEREOF” (Bioacts Corporation, priority 2021, published 2022).

The nature of this data set: Comparison of fluorescent values at the same absorption wavelength of compound 2-1 and compound 2-2. The data set is classed as physicochemical. As for the experimental part: In order to confirm an increase in fluorescent intensity by introducing triazine substituted with a hydroxyl group shown in the compound 3-3 as a linker, the following comparative experiment was conducted.
The compound 2-1 was dissolved in DMF at a concentration of 10 mg/ml and then 5 μl of the compound 2-1 was added to 5 ml of PBS at room temperature, and 5 μl of the compound 2-2 was added to 5 mL of PBS at the same concentration in the same manner. The absorption was measured by adding 2 mL of two samples by 1 mL of PBS and the fluorescence was measured even after diluting the compounds.
In FIGS. 1 and 2, the numerical values of ½ and ¼ indicate that the initial concentration was diluted.

Molecules are shown by their SMILES.

Regarding `CC1(CCCCCC(=O)NCCCNc2nc(O)nc(NCCCCCC(=O)ON3C(=O)CCC3=O)n2)C(/C=C/C=C/C=C2/N(CCCS(=O)(=O)O)c3ccc(S(=O)(=O)O)cc3C2(C)C)=[N+](CCCS(=O)(=O)O)c2ccc(S(=O)(=O)[O-])cc21` (centres unmarked) [Compound 2-2], the “increase in fluorescence intensity” value (compared to compound 2-1, at a concentration representing the same absorption intensity, DMF stock 10 mg/ml diluted in PBS, room temperature) is recorded as at least 162%. Moreover, the “fluorescence intensity as compared to the compound 2-1” value (single dye form, in PBS, initial concentration and 1/2, 1/4 dilutions) was “the higher the concentration, the higher the fluorescence intensity”.
